Molecules are shown by their SMILES. pIC50: −log10 of the molar value.

This test has as its target MCH receptor (Homo sapiens, UniProt Q99705). Nature of the test: High throughput functional screening FLIPR/FDSS6000: inhibition of MCH-evoked intracellular Ca2+ changes. It is filed as cell-based. Conditions: class by percent of control at 10^-7 M or by IC50; read-out: class. In short, it runs like this: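 Constitutively active non-endogenous MCH-R cells; Fluo4-AM 4 μM, 2.5 mM probenecid, 1 hr, 37° C; cpd 3 min, 37° C; MCH 50 nM (antagonist mode); kinetic Ca2+ read Ex488/Em530, 290 s.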

Regarding `CN(C)c1nc(N[C@H]2CC[C@@H](NC(=O)Nc3ccc(OCc4ccccc4)cc3)CC2)nc2ccccc12` [compound 139], the pIC50 was less than 6.70.

As to `CN(C)c1nc(N[C@H]2CC[C@@H](NC(=O)Nc3ccc(Cc4ccccc4)cc3)CC2)nc2ccccc12` [compound 140], the pIC50 was less than 6.70.

Regarding `CN(C)c1nc(N[C@H]2CC[C@@H](NC(=O)Nc3ccc(Br)cc3C(F)(F)F)CC2)nc2ccccc12` [compound 141, N-[4-bromo-2-(trifluoromethyl)pheny]-N′-(cis-4-{[4-(dimethylamino)quinazolin-2-yl]amino}cyclohexyl)urea], the pIC50 was greater than 7.30.

`CN(C)c1nc(N[C@H]2CC[C@@H](NC(=O)Nc3c(F)cc(Br)cc3F)CC2)nc2ccccc12` [compound 142, N-(4-bromo-2,6-difluorophenyl)-N′-(cis-4-{[4-(dimethylamino)quinazolin-2-yl]amino}cyclohexyl)urea]: the pIC50 was greater than 7.30.

On to `CN(C)c1nc(N[C@H]2CC[C@@H](NC(=O)Nc3ccc(Br)cc3Cl)CC2)nc2ccccc12` [compound 143], for which the pIC50 is less than 6.70.

For the compound `CN(C)c1nc(N[C@H]2CC[C@@H](NC(=O)NCc3ccc(Br)cc3)CC2)nc2ccccc12` [compound 144, N-(4-bromobenzyl)-N′-(cis-4-{[4-(dimethylamino)quinazolin-2-yl]amino}cyclohexyl)urea], the pIC50 is greater than 7.30.

For the compound `CN(C)c1nc(N[C@H]2CC[C@@H](NC(=O)Nc3ccc(Cl)cc3C(F)(F)F)CC2)nc2ccccc12` [compound 145, N-[4-chloro-2-(trifluoromethyl)phenyl]-N′-(cis-4-{[4-(dimethylamino)quinazolin-2-yl]amino}cyclohexyl)urea], the pIC50 was greater than 7.30.

For the compound `Cc1cc(Cl)ccc1NC(=O)N[C@H]1CC[C@@H](Nc2nc(N(C)C)c3ccccc3n2)CC1` [compound 146], the pIC50 was greater than 7.30.

`CN(C)c1nc(N[C@H]2CC[C@@H](NC(=O)Nc3ccc(Cl)cc3[N+](=O)[O-])CC2)nc2ccccc12` [compound 147]: the pIC50 is less than 6.70.

For the compound `CN(C)c1nc(N[C@H]2CC[C@@H](NC(=O)Nc3ccc(Cl)c(C(F)(F)F)c3)CC2)nc2ccccc12` [compound 148], the pIC50 was less than 6.70.

On to `CN(C)c1nc(N[C@H]2CC[C@@H](NC(=O)Nc3ccc(C#N)cc3)CC2)nc2ccccc12` [compound 149, N-(4-cyanophenyl)-N′-(cis-4-{[4-(dimethylamino)quinazolin-2-yl]amino}cyclohexyl)urea], for which the pIC50 is greater than 7.30.

In the case of `CCOc1ccc(NC(=O)N[C@H]2CC[C@@H](Nc3nc(N(C)C)c4ccccc4n3)CC2)cc1` [compound 150, N-(cis-4-{[4-(dimethylamino)quinazolin-2-yl]amino}cyclohexyl)-N′-(4-ethoxyphenyl)urea], the pIC50 is 6.70 to 7.30.

Turning to `CN(C)c1nc(N[C@H]2CC[C@@H](NC(=O)Nc3ccccc3OC(F)(F)F)CC2)nc2ccccc12` [compound 152], the pIC50 is less than 6.70.

`CC(=O)c1cccc(NC(=S)N[C@H]2CC[C@@H](Nc3nc(N(C)C)c4ccccc4n3)CC2)c1` [compound 153]: the pIC50 was less than 6.70.

With `CC(=O)c1ccc(NC(=S)N[C@H]2CC[C@@H](Nc3nc(N(C)C)c4ccccc4n3)CC2)cc1` [compound 154], the pIC50 was less than 6.70.

Consider `CN(C)c1nc(N[C@H]2CC[C@@H](NC(=S)Nc3cc(C(F)(F)F)cc(C(F)(F)F)c3)CC2)nc2ccccc12` [compound 155], for which the pIC50 is less than 6.70.

Regarding `CN(C)c1nc(N[C@H]2CC[C@@H](NC(=S)NCc3ccccc3)CC2)nc2ccccc12` [compound 156], the pIC50 was less than 6.70.

Turning to `CN(C)c1nc(N[C@H]2CC[C@@H](NC(=S)Nc3cccc(Br)c3)CC2)nc2ccccc12` [compound 157, N-(3-bromopheny)-N′-(cis-4-{[4-(dimethylamino)quinazolin-2-yl]amino}cyclohexyl)thiourea], the pIC50 is less than 6.70.

`CN(C)c1nc(N[C@H]2CC[C@@H](NC(=S)Nc3ccc(Br)cc3)CC2)nc2ccccc12` [compound 158, N-(4-bromophenyl)-N′-(cis-4-{[4-(dimethylamino)quinazolin-2-yl]amino}cyclohexyl)thiourea]: the pIC50 was greater than 7.30.

Regarding `CCCCNC(=S)N[C@H]1CC[C@@H](Nc2nc(N(C)C)c3ccccc3n2)CC1` [compound 159], the pIC50 was less than 6.70.

With `CN(C)c1nc(N[C@H]2CC[C@@H](NC(=S)Nc3ccc(C#N)cc3)CC2)nc2ccccc12` [compound 160, N-(4-cyanophenyl)-N′-(cis-4-{[4-(dimethylamino)quinazolin-2-yl]amino}cyclohexyl)thiourea], the pIC50 was greater than 7.30.

In the case of `CN(C)c1nc(N[C@H]2CC[C@@H](NC(=S)NC3CCCCC3)CC2)nc2ccccc12` [compound 161, N-cyclohexyl-N′-(cis-4-{[4-(dimethylamino)quinazolin-2-yl]amino}cyclohexyl)thiourea], the pIC50 was 6.70 to 7.30.

As for `CN(C)c1nc(N[C@H]2CC[C@@H](NC(=S)NC3CCCC3)CC2)nc2ccccc12` [compound 162, N-cyclopentyl-N′-(cis-4-{[4-(dimethylamino)quinazolin-2-yl]amino}cyclohexyl)thiourea], the pIC50 is 6.70 to 7.30.

In the case of `CN(C)c1nc(N[C@H]2CC[C@@H](NC(=S)Nc3cccc(Cl)c3)CC2)nc2ccccc12` [compound 163], the pIC50 is less than 6.70.

Take `CN(C)c1nc(N[C@H]2CC[C@@H](NC(=S)Nc3ccc(Cl)cc3)CC2)nc2ccccc12` [compound 164]: the pIC50 was 6.70 to 7.30.

With `CN(C)c1nc(N[C@H]2CC[C@@H](NC(=S)Nc3ccc(Cl)cc3Cl)CC2)nc2ccccc12` [compound 165, N-(2,4-dichlorophenyl)-N′-(cis-4-{[4-(dimethylamino)quinazolin-2-yl]amino}cyclohexyl)thiourea], the pIC50 is greater than 7.30.

For `COc1ccc(NC(=S)N[C@H]2CC[C@@H](Nc3nc(N(C)C)c4ccccc4n3)CC2)c(OC)c1` [compound 166], the pIC50 was greater than 7.30.

With `CN(C)c1nc(N[C@H]2CC[C@@H](NC(=S)Nc3cc(F)ccc3F)CC2)nc2ccccc12` [compound 167], the pIC50 is less than 6.70.

Regarding `CN(C)c1nc(N[C@H]2CC[C@@H](NC(=S)Nc3cc(Cl)ccc3Cl)CC2)nc2ccccc12` [compound 168], the pIC50 is less than 6.70.

As for `Cc1cccc(C)c1NC(=S)N[C@H]1CC[C@@H](Nc2nc(N(C)C)c3ccccc3n2)CC1` [compound 169, N-(cis-4-{[4-(dimethylamino)quinazolin-2-yl]amino}cyclohexyl)-N′-(2,6-dimethylphenyl)thiourea], the pIC50 was greater than 7.30.

As to `CN(C)c1nc(N[C@H]2CC[C@@H](NC(=S)Nc3ccc(Cl)c(Cl)c3)CC2)nc2ccccc12` [compound 170], the pIC50 is less than 6.70.

As to `CN(C)c1nc(N[C@H]2CC[C@@H](NC(=S)Nc3c(Cl)cccc3Cl)CC2)nc2ccccc12` [compound 171], the pIC50 is less than 6.70.

Regarding `CCOc1ccc(NC(=S)N[C@H]2CC[C@@H](Nc3nc(N(C)C)c4ccccc4n3)CC2)cc1` [compound 172], the pIC50 was less than 6.70.

As to `CCc1cccc(C(C)C)c1NC(=S)N[C@H]1CC[C@@H](Nc2nc(N(C)C)c3ccccc3n2)CC1` [compound 173, N-(cis-4-{[4-(dimethylamino)quinazolin-2-yl]amino}cyclohexyl)-N′-(2-ethyl-6-isoprophylphenyl)thiourea], the pIC50 is greater than 7.30.

On to `CN(C)c1nc(N[C@H]2CC[C@@H](NC(=S)NCc3ccco3)CC2)nc2ccccc12` [compound 174], for which the pIC50 is less than 6.70.

On to `CN(C)c1nc(N[C@H]2CC[C@@H](NC(=S)Nc3ccc(F)cc3)CC2)nc2ccccc12` [compound 175, N-(cis-4-{[4-(dimethylamino)quinazolin-2-yl]amino}cyclohexyl)-N′-(4-fluorophenyl)thiourea], for which the pIC50 was 6.70 to 7.30.

Turning to `CCCCCCNC(=S)N[C@H]1CC[C@@H](Nc2nc(N(C)C)c3ccccc3n2)CC1` [compound 176, N-(cis-4-{[4-(dimethylamino)quinazolin-2-yl]amino}cyclohexyl)-N′-hexylthiourea], the pIC50 is 6.70 to 7.30.

`CCC[C@H]1CC[C@H](c2ccc(NC(=S)N[C@H]3CC[C@@H](Nc4nc(N(C)C)c5ccccc5n4)CC3)cc2)CC1` [compound 177]: the pIC50 was less than 6.70.

Consider `CC(C)CNC(=S)N[C@H]1CC[C@@H](Nc2nc(N(C)C)c3ccccc3n2)CC1` [compound 178, N-(cis-4-{[4-(dimethylamino)quinazolin-2-yl]amino}cyclohexyl)-N′-isobutylthiourea], for which the pIC50 is 6.70 to 7.30.

As to `COc1ccc(-c2ccccc2)cc1NC(=S)N[C@H]1CC[C@@H](Nc2nc(N(C)C)c3ccccc3n2)CC1` [compound 179, N-(cis-4-{[4-(dimethylamino)quinazolin-2-yl]amino}cyclohexyl)-N′-(4-methoxybiphenyl-3-yl)thiourea], the pIC50 is 6.70 to 7.30.

For the compound `CN(C)c1nc(N[C@H]2CC[C@@H](NC(=S)NCc3ccc4c(c3)OCO4)CC2)nc2ccccc12` [compound 180, N-(1,3-benzodioxol-5-ylmethyl)-N′-(cis-4-{[4-(dimethylamino)quinazolin-2-yl]amino}cyclohexyl)thiourea], the pIC50 is 6.70 to 7.30.

Take `Cc1cccc(NC(=S)N[C@H]2CC[C@@H](Nc3nc(N(C)C)c4ccccc4n3)CC2)c1` [compound 181]: the pIC50 was less than 6.70.

In the case of `CSc1ccc(NC(=S)N[C@H]2CC[C@@H](Nc3nc(N(C)C)c4ccccc4n3)CC2)cc1` [compound 182, N-(cis-4-{[4-(dimethylamino)quinazolin-2-yl]amino}cyclohexyl)-N′-[4-(methylthio)phenyl]thiourea], the pIC50 was 6.70 to 7.30.

`COc1ccc(NC(=S)N[C@H]2CC[C@@H](Nc3nc(N(C)C)c4ccccc4n3)CC2)cc1` [compound 183, N-(cis-4-{[4-(dimethylamino)quinazolin-2-yl]amino}cyclohexyl)-N′-(4-methoxyphenyl)thiourea]: the pIC50 is 6.70 to 7.30.

`C=C(C)CNC(=S)N[C@H]1CC[C@@H](Nc2nc(N(C)C)c3ccccc3n2)CC1` [compound 184]: the pIC50 is less than 6.70.

The record behind these values is patent US20070010671A1, “Novel quinazoline derivatives and methods of treatment related to the use thereof” (priority 2003, published 2007).
